Data on three compounds can be found in patent US9422238B2, “ICMT inhibitors” (National University of Singapore, priority 2012, dated 2016).

One data set can be described thus: physchem. The conditions noted are these: for solubility at 24 h: 25 °C; for solubility at 24 h / solubility / solubility at 3 h: pH 7.4, aqueous buffer, kinetic from dmso stock. The procedure: The turbid solution was delivered to the filter plate, agitated for a specific time period and then filtered. The concentration of dissolved compound in the filtrate was determined by uv spectroscopy and referred to pre-constructed calibration curves for solubility determination.
(§1) Determination of aqueous solubility was carried out on Multiscreen® Solubility filter plates (Millipore-MSSLBPC10) from Millipore Corporation (MA, USA). The protocol (PC2445EN00, Millipore Corporation) was followed. Briefly, various concentrations of the test compound were prepared in Universal buffer (pH 7.4)/acetonitrile/DMSO. The UV absorbances of these solutions were obtained at a pre-determined wavelength and used to construct a calibration curve for the test compound. Next, a stock solution of the test compound in DMSO was prepared at a known concentration, diluted with Universal buffer (pH 7.4), dispensed into wells in the Multiscreen Solubility filter plate, and agitated for a period of time. The suspension is then filtered, the filtrate collected and diluted with acetonitrile to give the same solvent composition used to prepare the calibration solutions. The absorbance of the diluted filtrate was then read at the predetermined wavelength and the concentration of the filtrate (taken here to be equivalent to the solubility of the test compound) was determined from the calibration curve.
as §1, with “24 hours at room temperature (25 deg C.). […]” for “a period of time.”, “was” for “is then”, “was” for “was then”, “(equivalent” for “(taken here to be equivalent”, “curve. […] LCMS determinations were made on an Agilent 1200 Series HPLC linked to a AB Sciex Instruments 3200 Q TRAP LC/MS/MS. Separations were carried out on a Phenomenex Luna column [3u, C18(2), 100A, 5×4.6 mm]. […] Quantification was based on the ratio of peak areas of the daughter ion and the mother ion (M+H), normalized against the same ratio obtained for the internal standard. The solubility determinations were carried out in triplicates or more from two different stock solutions.” for “curve.”

Data set [1] deals with MDA-MB-231 human breast cells. Nature of the data set: Antiproliferative activity / cell viability (MTS, 72 h). The following applies: Homo sapiens.
Protocol: (§2) The relative number of the live cells was determined using the CellTiter® 96 AQueous One Solution Cell Proliferation Assay (Promega). Determinations were made in duplicates or triplicates.
Human breast cancer MDA-MB231, liver cancer HepG2 and lung fibroblast cells were purchased from ATCC (Rockville, Md.). MDA-MB231 cells and IMR-90 cells were grown in DMEM (Sigma Aldrich, Singapore) and EMEM (Sigma Aldrich, Singapore) respectively at 37° C., 5% CO2. DMEM was supplemented with 10% fetal bovine serum (Invitrogen, heat treated at 65 deg C., 30 min), 50 units/L penicillin-G and 50 μg/mL streptomycin. EMEM was supplemented with 10% fetal bovine serum (heat treated as above), 100 mg/L penicillin-G and 100 μg/mL streptomycin.
Cell viability was assessed using CellTitre 96® Aqueous One Solution (Promega, Madison, Wis.) containing the tetrazolium salt 3-(4,5-dimethylthiazol-2-yl)-5-(3-carboxymethoxyphenyl)-2-(4-sulfophenyl)-2H-tetrazolium (MTS). […] Final concentration of DMSO per well was maintained at 0.5% v/v. […] Cell viability was determined from the expression:
The plot was constrained to ≧0 and ≦100%. At least 3 independent determinations of IC50 were made using two different stock solutions of test compound.
For data set [2], the system named is Human hepatocellular carcinoma HepG2 cells. Nature of the data set: Cell viability (MTS, 72 h). It is filed as cell-based. The following applies: for IC50: HepG2, Table 6, mean (SD), read-out: IC50 (μM) HepG2. How it is done:
Cell viability was determined from the expression:
The plot was constrained to ≧0 and ≦100%.
Human hepatocellular carcinoma HepG2 and human pancreatic cancer MIA PACA II cells were obtained from ATCC (Rockville, Md.). They were grown in DMEM (high glucose, Invitrogen) supplemented with 10% FBS, 50 μg/mL penicillin and 50 μg/mL streptomycin, 37° C., 5% CO2 until they reached 80-90% confluency, after which they were subcultured. Passage numbers were kept within 7-14 passages for both cell types.

In data set [3] the test system is PC3 Prostrate cancer cells. Nature of the data set: Antiproliferative activity / cell viability (MTS, 72 h). The following applies: Homo sapiens; for pIC50: PC-3M, Table 3, 72 h, mean (SD), read-out: IC50 PC3; for IC50: Table 6, from earlier table, read-out: IC50 (μM) PC3. It is filed as cell-based, human.
Protocol: as §2
Data set [4] is described as follows: In vitro stability in rat liver microsomes. The class given is in vitro ADME. The following applies: for half-life / microsomal CLint: male, pooled rat liver microsomes, pH 7.4, NADPH; for microsomal CLint: read-out: Intrinsic Clearance; for Half-life (min) / Intrinsic Clearance (μL/min/mg): NADPH. How it is done: The mixture was preincubated for 5 min at 37° C. in a shaking water bath, after which the reaction was initiated by adding […] of 10 mM NADPH (freshly prepared in phosphate buffer) to give a final concentration of 1 mM NADPH in the mixture. Aliquots of 50 μL were withdrawn immediately on addition of NADPH (time 0) and subsequently at 5, 15, 30 and 45 min. […] The mixture was then centrifuged at 10,000×g to remove the protein and the content of the test compound in the supernatant was subsequently measured by LCMS.
For each test compound, the metabolic stability of a positive control, midazolam (5 μM) which is a known cytochrome P450 substrate, was concurrently determined to evaluate the adequacy of the experimental conditions. The stability of the test compound to microsomal degradation in the absence of NADPH was also monitored.
Separations were made on a C18 column (Luna 3u C18(2) 100A column (2.0×50 mm, i.d., 3 μM, Phenomenex, Aschaffenburg, Germany or Eclipse Plus C18 column, 4.6×150 mm, i.d., 3.5 μM Agilent Technologies, Palo Alto, Calif., USA) with a security guard cartridge (3.0×4 mm, Agilent Technologies, Palo Alto, Calif., USA). Mobile phase was 0.1% formic acid in acetonitrile-water as mobile phase. Flow rate was set at 0.2 or 0.6 mL/min and the column temperature was at 30° or 40° C. 2 or 5 μL full loop sample injection was used.
Data processing was performed with Analyst™ 1.4.2 software package (Applied Biosystems, MA., USA). The corresponding MRM transition of this candidate was selected and used for peak configuration in Analyst 1.4.2 for semi-quantitation. The peak areas of test compound at different time points were expressed as a % of the peak area of test compound at time=0 min. The resulting % of intact (or remaining) test compound (average of 3 measurements with SD) was plotted against incubation time drug (Figure xx). In vitro half life (T1/2, min) was calculated from Equation 3 (Lu C, Li P, Gallegos R, Uttamsingh V, Xia C Q, Miwa G T, et al. Comparison of intrinsic clearance in liver microsomes and hepatocytes from rats and humans: evaluation of free fraction and uptake in hepatocytes. Drug Metab Dispos 2006; 34: 1600-5). T1/2=0.693/k(min) Equation 3: Where k is the slope of the plot Estimated in vitro clearance was determined from Equation 4: CLint, in vitro=V×0.693/T½ Equation 4: where V (μL/mg)=Volume of incubation/amount of microsomal protein in the incubation (μL/mg) Ames Test for Mutagenicity
(Liver microsomes are a subcellular fraction often used to study metabolism.)

[5] abbreviates: MDA-MB-231, 72 h, read-out: IC50 MDA-MB-231 (μM).
Where [6] appears, read: MDA-MB-231, 72 h, read-out: IC50MDA-MB-231 (μM).
The mark [7] stands for this setting: HepG2, further testing, 72 h, mean (SD), read-out: IC50 HepG2.
The mark [8] stands for this setting: MDA-MB-231, read-out: IC50 (μM) MDA MB 231.
The mark [9] stands for this setting: HepG2, read-out: in vitro IC50 (horizontal line in FIGS. 14 and 15), cell line not stated.

pIC50: −log10 of the molar value. Converted amounts (≈) assume the structure as drawn. “And” between values parts separate entries of the source, which are not always exact repeats. Identical values can stand only once. Like-named read-outs stand apart in the source and are kept apart here.

One may read the solubility as the concentration that dissolves in the medium under given conditions. Read a low solubility as a poorly soluble substance. As a reminder, the pIC50 is the IC50 on a negative log10 scale, so that one unit is a factor of ten. As usually defined, the half-life is the time in which the quantity being followed falls by half. A higher half-life goes with slow decline. With `CCCCCCCCn1c2c(c3cc(-c4cnc(N)nc4)ccc31)CN(C)CC2` [Compound 305, 8-(2′-amino-pyrimidin-5′-yl)-2-methyl-5-n-octyl-1,2,3,4-tetrahydropyrido[4,3-b]indole], in “physchem”, the concentration in solution (solubility at 24 h) was 40.6 µM (≈ 15.9 µg/mL), the concentration in solution (solubility) came to 20 µg/mL (≈ 51.1 µM) and the concentration in solution (solubility at 3 h) came to 49.5 µM (≈ 19.4 µg/mL). The “Solubility (μM)” value in “physchem” (24 h, pH 7.4) is on record as 40.6 (1.75) μM. In data set [1] (setting [5]), the IC50 was 5.65 µM. Further, the IC50 in data set [1] (setting [6]) was determined as 4.61 µM. The pIC50 in data set [2] (setting [7]) was 5.76. In addition, the pIC50 in data set [3] is 5.37. In data set [4], the half-life came to 31.6 min and the microsomal CLint was determined as 76.6 µL/min/mg.

`CCCCCCCCn1cc(CN(CC)CC)c2cc(-c3cnc(N)nc3)ccc21` [Compound 8-12, 5-(3-Diethylaminomethyl-1-octyl-1H-indol-5-yl)-pyrimidin-2-ylamine]: in “physchem”, the solubility at 24 h is 156 µM and 64 µg/mL; the solubility was approximately 65 µg/mL (≈ 159 µM); the concentration in solution (solubility at 3 h) was 166 µM (≈ 67.7 µg/mL). Also, the “Aqueous Solubility (pH 7.4) 24 hours” value in the data set “physchem” (24 h, pH 7.4) was 155.9 (6.4) μM. Moreover, the IC50 in data set [1] (setting [5]) worked out at 2.48 µM. Besides, the IC50 in data set [1] (setting [6]) turned out to be 2.63 µM. In data set [1] (setting [8]), the IC50 is 2.63 µM. The IC50 in data set [2] was 1.65 µM. The pIC50 in data set [2] (setting [7]) is 5.78. For the same compound, in data set [2] (setting [9]), the negative logarithm of the IC50 (pIC50) was 5.77. Also, in data set [3], the pIC50 was 5.59 and the IC50 was 2.55 µM. Moreover, in data set [4], the “Half-life (min)” value was 11.3 (0.4) min, the “Intrinsic Clearance (μL/min/mg)” value is on record as 204.0 (9.0) μL/min/mg, the half-life amounted to 11.3 min and the microsomal CLint was determined as 204 µL/min/mg.

On to `CCCCCCCCn1cc(CC(N)=O)c2cc(-c3cccc(C)c3)ccc21` [Cysmethynil, 2-[5-(3-methylphenyl)-1-octyl-1H-indolo-3-yl]acetamide, reference compound], for which, in the data set “physchem”, the solubility at 24 h is less than 1 µM. For the same compound, in the data set “physchem”, the solubility at 3 h is less than 1 µM. For the same compound, the IC50 turned out to be 27.4 µM in data set [1] (setting [5]); 26.8 µM in data set [1] (setting [6]); 27.4 µM in data set [1] (setting [8]); 21.8 µM in data set [2]; 25.2 µM in data set [3]. In addition, the pIC50 is 4.66 in data set [2] (setting [7]), 4.66 in data set [2] (setting [9]) and 4.61 in data set [3]. In addition, the “Half-life (min)” value in data set [4] is 44.8 (8.0) min. For the same compound, the “Intrinsic Clearance (μL/min/mg)” value in data set [4] is given as 53.6 (9.0) μL/min/mg. The half-life in data set [4] came out at 44.8 min. For the same compound, the microsomal CLint in data set [4] turned out to be 53.6 µL/min/mg.
